Reference: PubChem BioAssay AID2060619 (Molecular Pharmacology Branch, DTP, NCI, 2025)

Test system: 323965-272-R-J2-PDC complex spheroid viability
Test: Anticancer human tumor 323965-272-R-J2-PDC patient-derived pancreatic carcinoma cell line growth inhibition [CLK]
Settings: for IC50: curve of first compound; for viability, T/C: stronger effect = lower value
In short: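 Multi-cell-type spheroids combined patient-derived tumor cells with HUVEC endothelial cells and human mesenchymal stem cells. Paired agents were dosed in half-log steps down from about clinical Cmax, or from 10 microM where Cmax was unknown.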

[1] = second compound 0.0316 µM, first compound 0.00949 µM
[2] = second compound 0.0316 µM, first compound 0.03 µM
[3] = second compound 0.0316 µM, first compound 0.0949 µM
[4] = second compound 0.0316 µM, first compound 0.3 µM
[5] = second compound 0.1 µM, first compound 0.00949 µM
[6] = second compound 0.1 µM, first compound 0.03 µM
[7] = second compound 0.1 µM, first compound 0.0949 µM
[8] = second compound 0.1 µM, first compound 0.3 µM
[9] = second compound 0.316 µM, first compound 0.00949 µM
[10] = second compound 0.316 µM, first compound 0.03 µM
[11] = second compound 0.316 µM, first compound 0.0949 µM
[12] = second compound 0.316 µM, first compound 0.3 µM
[13] = second compound 1 µM, first compound 0.00949 µM
[14] = second compound 1 µM, first compound 0.03 µM
[15] = second compound 1 µM, first compound 0.0949 µM
[16] = second compound 1 µM, first compound 0.3 µM
[17] = second compound 3.16 µM, first compound 0.00949 µM
[18] = second compound 3.16 µM, first compound 0.03 µM
[19] = second compound 3.16 µM, first compound 0.0949 µM
[20] = second compound 3.16 µM, first compound 0.3 µM
[21] = second compound 10 µM, first compound 0.00949 µM
[22] = second compound 10 µM, first compound 0.03 µM
[23] = second compound 10 µM, first compound 0.0949 µM
[24] = second compound 10 µM, first compound 0.3 µM
[25] = second compound 0.0316 µM, first compound 0.0316 µM
[26] = second compound 0.0316 µM, first compound 0.1 µM
[27] = second compound 0.0316 µM, first compound 0.316 µM
[28] = second compound 0.0316 µM, first compound 1 µM
[29] = second compound 0.0316 µM, first compound 3.16 µM
[30] = second compound 0.0316 µM, first compound 10 µM
[31] = second compound 0.1 µM, first compound 0.0316 µM
[32] = second compound 0.1 µM, first compound 0.1 µM
[33] = second compound 0.1 µM, first compound 0.316 µM
[34] = second compound 0.1 µM, first compound 1 µM
[35] = second compound 0.1 µM, first compound 3.16 µM
[36] = second compound 0.1 µM, first compound 10 µM
[37] = second compound 0.316 µM, first compound 0.0316 µM
[38] = second compound 0.316 µM, first compound 0.1 µM
[39] = second compound 0.316 µM, first compound 0.316 µM
[40] = second compound 0.316 µM, first compound 1 µM
[41] = second compound 0.316 µM, first compound 3.16 µM
[42] = second compound 0.316 µM, first compound 10 µM
[43] = second compound 1 µM, first compound 0.0316 µM
[44] = second compound 1 µM, first compound 0.1 µM
[45] = second compound 1 µM, first compound 0.316 µM
[46] = second compound 1 µM, first compound 1 µM
[47] = second compound 1 µM, first compound 3.16 µM
[48] = second compound 1 µM, first compound 10 µM
[49] = second compound 3.16 µM, first compound 0.0316 µM
[50] = second compound 3.16 µM, first compound 0.1 µM
[51] = second compound 3.16 µM, first compound 0.316 µM
[52] = second compound 3.16 µM, first compound 1 µM
[53] = second compound 3.16 µM, first compound 3.16 µM
[54] = second compound 3.16 µM, first compound 10 µM
[55] = second compound 10 µM, first compound 0.0316 µM
[56] = second compound 10 µM, first compound 0.1 µM
[57] = second compound 10 µM, first compound 0.316 µM
[58] = second compound 10 µM, first compound 1 µM
[59] = second compound 10 µM, first compound 3.16 µM
[60] = second compound 10 µM, first compound 10 µM
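Also: spheroids exposed to agents for seven days before readout.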
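For viability, T/C in this document: percent of DMSO vehicle control wells so 100% = untreated growth.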

CC(C)CC(NC(=O)C(Cc1ccccc1)NC(=O)c1cnccn1)B(O)O (stereo not drawn) + CN1CCN(c2cc(C(=O)Nc3cc4cc(-c5cnn(C)c5)ccc4cn3)ccn2)CC1
IC50 (second compound 0.0316 µM): 4.13 nM
IC50 (second compound 0.1 µM): 4.13 nM
IC50 (second compound 0.316 µM): < 0.949 nM
IC50 (second compound 1 µM): < 0.949 nM
IC50 (second compound 3.16 µM): < 0.949 nM
IC50 (second compound 10 µM): < 0.949 nM
viability, T/C (second compound 0.0316 µM, first compound 0.000949 µM): 102%
viability, T/C (second compound 0.0316 µM, first compound 0.003 µM): 67.1%
viability, T/C [1]: 5.27%
viability, T/C [2]: 0.67%
viability, T/C [3]: 0.27%
viability, T/C [4]: 0.2%
viability, T/C (second compound 0.1 µM, first compound 0.000949 µM): 70.2%
viability, T/C (second compound 0.1 µM, first compound 0.003 µM): 67.7%
viability, T/C [5]: 4.08%
viability, T/C [6]: 0.54%
viability, T/C [7]: 0.24%
viability, T/C [8]: 0.21%
viability, T/C (second compound 0.316 µM, first compound 0.000949 µM): 27.6%
viability, T/C (second compound 0.316 µM, first compound 0.003 µM): 27.3%
viability, T/C [9]: 2.6%
viability, T/C [10]: 0.27%
viability, T/C [11]: 0.18%
viability, T/C [12]: 0.3%
viability, T/C (second compound 1 µM, first compound 0.000949 µM): 5.63%
viability, T/C (second compound 1 µM, first compound 0.003 µM): 1.53%
viability, T/C [13]: 0.21%
viability, T/C [14]: 0.19%
viability, T/C [15]: 0.2%
viability, T/C [16]: 1.89%
viability, T/C (second compound 3.16 µM, first compound 0.000949 µM): 5.74%
viability, T/C (second compound 3.16 µM, first compound 0.003 µM): 2.25%
viability, T/C [17]: 1.98%
viability, T/C [18]: 0.31%
viability, T/C [19]: 0.19%
viability, T/C [20]: 2.14%
viability, T/C (second compound 10 µM, first compound 0.000949 µM): 4.58%
viability, T/C (second compound 10 µM, first compound 0.003 µM): 2.17%
viability, T/C [21]: 0.45%
viability, T/C [22]: 0.32%
viability, T/C [23]: 5.38%
viability, T/C [24]: 2.98%

CC1(C)CCC(CN2CCN(c3ccc(C(=O)NS(=O)(=O)c4ccc(NCC5CCOCC5)c([N+](=O)[O-])c4)c(Oc4cnc5[nH]ccc5c4)c3)CC2)=C(c2ccc(Cl)cc2)C1 + CN1CCN(c2cc(C(=O)Nc3cc4cc(-c5cnn(C)c5)ccc4cn3)ccn2)CC1
IC50 (second compound 0.0316 µM): 4960 nM
IC50 (second compound 0.1 µM): 3600 nM
IC50 (second compound 0.316 µM): < 31.6 nM
IC50 (second compound 1 µM): < 31.6 nM
IC50 (second compound 3.16 µM): < 31.6 nM
IC50 (second compound 10 µM): < 31.6 nM
viability, T/C [25]: 91.3%
viability, T/C [26]: 97.7%
viability, T/C [27]: 93.8%
viability, T/C [28]: 92.2%
viability, T/C [29]: 78.8%
viability, T/C [30]: 5.11%
viability, T/C [31]: 69.6%
viability, T/C [32]: 63.8%
viability, T/C [33]: 65.4%
viability, T/C [34]: 68.5%
viability, T/C [35]: 55.8%
viability, T/C [36]: 5.08%
viability, T/C [37]: 27.8%
viability, T/C [38]: 24.5%
viability, T/C [39]: 28.6%
viability, T/C [40]: 27.1%
viability, T/C [41]: 20.2%
viability, T/C [42]: 4.31%
viability, T/C [43]: 3.4%
viability, T/C [44]: 3.32%
viability, T/C [45]: 4.86%
viability, T/C [46]: 2.95%
viability, T/C [47]: 2.45%
viability, T/C [48]: 2.47%
viability, T/C [49]: 3.55%
viability, T/C [50]: 3.34%
viability, T/C [51]: 3.03%
viability, T/C [52]: 2.11%
viability, T/C [53]: 1.06%
viability, T/C [54]: 0.14%
viability, T/C [55]: 4.06%
viability, T/C [56]: 3.26%
viability, T/C [57]: 3.77%
viability, T/C [58]: 2.06%
viability, T/C [59]: 0.92%
viability, T/C [60]: 3.22%

CC1COCCN1c1cc(C2(S(C)(=N)=O)CC2)nc(-c2ccnc3[nH]ccc23)n1 (stereo not drawn) + CN1CCN(c2cc(C(=O)Nc3cc4cc(-c5cnn(C)c5)ccc4cn3)ccn2)CC1
IC50 (second compound 0.0316 µM): 1820 nM
IC50 (second compound 0.1 µM): 701 nM
IC50 (second compound 0.316 µM): < 31.6 nM
IC50 (second compound 1 µM): < 31.6 nM
IC50 (second compound 3.16 µM): < 31.6 nM
IC50 (second compound 10 µM): < 31.6 nM
viability, T/C [25]: 98.2%
viability, T/C [26]: 103%
viability, T/C [27]: 79.5%
viability, T/C [28]: 65.8%
viability, T/C [29]: 36.7%
viability, T/C [30]: 25.6%
viability, T/C [31]: 66.9%
viability, T/C [32]: 77.2%
viability, T/C [33]: 67%
viability, T/C [34]: 41.8%
viability, T/C [35]: 31%
viability, T/C [36]: 23.6%
viability, T/C [37]: 24.6%
viability, T/C [38]: 29.2%
viability, T/C [39]: 22.1%
viability, T/C [40]: 21.4%
viability, T/C [41]: 17.4%
viability, T/C [42]: 15.1%
viability, T/C [43]: 3.95%
viability, T/C [44]: 3.37%
viability, T/C [45]: 3.9%
viability, T/C [46]: 3.84%
viability, T/C [47]: 2.35%
viability, T/C [48]: 2.79%
viability, T/C [49]: 4.84%
viability, T/C [50]: 4.43%
viability, T/C [51]: 4.15%
viability, T/C [52]: 3.73%
viability, T/C [53]: 3.53%
viability, T/C [54]: 4.26%
viability, T/C [55]: 4.2%
viability, T/C [56]: 3.8%
viability, T/C [57]: 4.37%
viability, T/C [58]: 3.26%
viability, T/C [59]: 4.39%
viability, T/C [60]: 2.79%

NC(=O)C(=Cn1cnc(-c2cc(C(F)(F)F)cc(C(F)(F)F)c2)n1)c1cncnc1 + CN1CCN(c2cc(C(=O)Nc3cc4cc(-c5cnn(C)c5)ccc4cn3)ccn2)CC1
IC50 (second compound 0.0316 µM): 907 nM
IC50 (second compound 0.1 µM): 365 nM
IC50 (second compound 0.316 µM): < 9.49 nM
IC50 (second compound 1 µM): < 9.49 nM
IC50 (second compound 3.16 µM): < 9.49 nM
IC50 (second compound 10 µM): < 9.49 nM
viability, T/C [1]: 99.5%
viability, T/C [2]: 100%
viability, T/C [3]: 71.5%
viability, T/C [4]: 58.4%
viability, T/C (second compound 0.0316 µM, first compound 0.949 µM): 59.3%
viability, T/C (second compound 0.0316 µM, first compound 3 µM): 30%
viability, T/C [5]: 67.1%
viability, T/C [6]: 64.7%
viability, T/C [7]: 60.4%
viability, T/C [8]: 52.1%
viability, T/C (second compound 0.1 µM, first compound 0.949 µM): 38.6%
viability, T/C (second compound 0.1 µM, first compound 3 µM): 17%
viability, T/C [9]: 23.6%
viability, T/C [10]: 24%
viability, T/C [11]: 20.3%
viability, T/C [12]: 12.3%
viability, T/C (second compound 0.316 µM, first compound 0.949 µM): 5.84%
viability, T/C (second compound 0.316 µM, first compound 3 µM): 1.04%
viability, T/C [13]: 2.31%
viability, T/C [14]: 2.24%
viability, T/C [15]: 4.13%
viability, T/C [16]: 2.36%
viability, T/C (second compound 1 µM, first compound 0.949 µM): 1.39%
viability, T/C (second compound 1 µM, first compound 3 µM): 0.76%
viability, T/C [17]: 2.18%
viability, T/C [18]: 4.18%
viability, T/C [19]: 3.49%
viability, T/C [20]: 1.2%
viability, T/C (second compound 3.16 µM, first compound 0.949 µM): 0.81%
viability, T/C (second compound 3.16 µM, first compound 3 µM): 1.01%
viability, T/C [21]: 2.14%
viability, T/C [22]: 1.92%
viability, T/C [23]: 1.56%
viability, T/C [24]: 1.44%
viability, T/C (second compound 10 µM, first compound 0.949 µM): 2%
viability, T/C (second compound 10 µM, first compound 3 µM): 0.3%
